Measurements as given in the NIST ThermoML archive (doi:10.1016/j.fluid.2004.12.012).
Numbers after ± are expanded uncertainties.

What was measured:
[1] = Crystal; DTA
[2] = Molar enthalpy of transition or fusion; settings: Crystal; DSC

Row | Normal melting temperature [1] | Molar enthalpy of transition or fusion [2] | SMILES
1 | 40.5 ± 0.5 °C | 4.94 ± 0.148 kcal/mol | COc1cccc(C=O)c1O [2-hydroxy-3-methoxybenzaldehyde]
2 | 64.1 ± 0.5 °C | 6.08 ± 0.179 kcal/mol | CCOc1cccc(C=O)c1O [3-ethoxysalicylaldehyde]
3 | 82.4 ± 0.5 °C | 5.73 ± 0.167 kcal/mol | COc1cc(C=O)ccc1O [vanillin]

Row | SMILES | Normal melting temperature [1] | Molar enthalpy of transition or fusion [2]
4 | CCOc1cc(C=O)ccc1O [3-ethoxy-4-hydroxybenzaldehyde] | 76.7 ± 0.5 °C | 6.06 ± 0.174 kcal/mol
